The test system of data set [1] is SARS-CoV-2 S protein-mediated cell–cell fusion. The settings on record: 2 h.
The next data set has as its system pseudotyped HCoV-NL63. The settings on record: 12 h.
The subject of the next data set is authentic SARS-CoV-2. The settings on record: 48 h.
The subject of a further data set is authentic HCoV-OC43. Particulars: 36 h.
A further data set has as its system SARS-CoV-2 PsV. The settings on record: 12 h.
In the next data set the test system is trypsin. Particulars: n = 3.
Another data set concerns the target proteinase K (Parengyodontium album, UniProt P06873). Particulars: n = 3.

proteinase K, sequence (P06873 106-384): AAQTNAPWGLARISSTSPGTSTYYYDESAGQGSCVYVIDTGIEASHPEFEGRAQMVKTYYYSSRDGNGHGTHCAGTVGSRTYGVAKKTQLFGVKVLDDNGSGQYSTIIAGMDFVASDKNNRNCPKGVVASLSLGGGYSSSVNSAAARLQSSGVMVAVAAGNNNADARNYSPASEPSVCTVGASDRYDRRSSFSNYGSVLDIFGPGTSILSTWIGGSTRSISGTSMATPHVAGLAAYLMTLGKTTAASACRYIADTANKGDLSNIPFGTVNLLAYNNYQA

One may read the IC50 as the point on the concentration scale where inhibition reaches its midpoint. `CC[C@H](C)[C@H](NC(=O)[C@H](C)NC(=O)[C@H](CCC(=O)O)NC(=O)[C@H](CCC(=O)O)NC(=O)[C@H](CC(C)C)NC(=O)[C@H](CCCCN)NC(=O)[C@H](CCCCN)NC(=O)[C@H](CCSC)NC(=O)[C@H](CCC(=O)O)NC(=O)[C@H](Cc1ccc(O)cc1)NC(=O)[C@H](CCC(=O)O)NC(=O)[C@H](CC(C)C)NC(=O)[C@H](CC(=O)O)NC(=O)[C@H](CC(C)C)NC(=O)[C@H](Cc1ccccc1)NC(=O)[C@@H](NC(=O)[C@@H](NC(=O)[C@H](CC(N)=O)NC(=O)[C@@H](NC(=O)[C@H](CCC(N)=O)NC(=O)[C@H](CC(=O)O)NC(=O)[C@H](CC(C)C)NC(=O)[C@@H](N)CO)[C@@H](C)CC)C(C)C)[C@@H](C)O)C(=O)N[C@@H](CCCCN)C(=O)N[C@@H](CCCCN)C(=O)N[C@@H](CC(C)C)C(=O)N[C@@H](CCC(=O)O)C(=O)N[C@@H](CCC(=O)O)C(=O)N[C@@H](CO)C(=O)N[C@@H](Cc1ccc(O)cc1)C(=O)N[C@H](C(=O)N[C@@H](CC(=O)O)C(=O)N[C@@H](CC(C)C)C(=O)N[C@@H](CCCCN)C(=O)N[C@@H](CCC(=O)O)C(=O)N[C@@H](CC(C)C)C(N)=O)[C@@H](C)CC` [EK1]: the half-maximal inhibitory concentration (IC50) in data set [1] came to 320 nM; in the data set with pseudotyped HCoV-NL63, 1340 nM; in the data set on authentic SARS-CoV-2 it was 71 nM; with authentic HCoV-OC43 it was 2430 nM.
Take `CC[C@H](C)[C@H](NC(=O)[C@H](C)NC(=O)[C@H](CCC(=O)O)NC(=O)[C@H](CCC(=O)O)NC(=O)[C@H](CC(C)C)NC(=O)[C@H](CCCCN)NC(=O)[C@H](CCCCN)NC(=O)[C@H](CCSC)NC(=O)[C@H](CCC(=O)O)NC(=O)[C@H](Cc1ccc(O)cc1)NC(=O)[C@H](CCC(=O)O)NC(=O)[C@H](CC(C)C)NC(=O)[C@H](CC(=O)O)NC(=O)[C@H](CC(C)C)NC(=O)[C@H](Cc1ccccc1)NC(=O)[C@@H](NC(=O)[C@@H](NC(=O)[C@H](CC(N)=O)NC(=O)[C@@H](NC(=O)[C@H](CCC(N)=O)NC(=O)[C@H](CC(=O)O)NC(=O)[C@H](CC(C)C)NC(=O)[C@@H](N)CO)[C@@H](C)CC)C(C)C)[C@@H](C)O)C(=O)N[C@@H](CCCCN)C(=O)N[C@@H](CCCCN)C(=O)N[C@@H](CC(C)C)C(=O)N[C@@H](CCC(=O)O)C(=O)N[C@@H](CCC(=O)O)C(=O)N[C@@H](CO)C(=O)N[C@@H](Cc1ccc(O)cc1)C(=O)N[C@H](C(=O)N[C@@H](CC(=O)O)C(=O)N[C@@H](CC(C)C)C(=O)N[C@@H](CCCCN)C(=O)N[C@@H](CCC(=O)O)C(=O)N[C@@H](CC(C)C)C(=O)NCC(=O)N[C@@H](CO)C(=O)NCC(=O)N[C@@H](CO)C(=O)NCC(=O)NCCOCCOCCOCCOCCC(=O)N[C@@H](CSCC(=O)O[C@H]1CC[C@@]2(C)C(=CC[C@H]3[C@@H]4CC[C@H]([C@H](C)CCCC(C)C)[C@@]4(C)CC[C@@H]32)C1)C(N)=O)[C@@H](C)CC` [EK1C4]: the concentration for half-maximal inhibition (IC50) was 7 to 27 nM in the data set on SARS-CoV-2 PsV and 3 nM in data set [1]. For the same compound, in the data set on trypsin, the “sensitivity to trypsin (residual inhibitory activity over time)” value is listed as “gradually decreased more significantly”. Also, the “sensitivity to proteinase K (residual inhibitory activity over time)” value at proteinase K was “gradually decreased more significantly”.
